# Laboratory results from ChEMBL document CHEMBL1909046, “DrugMatrix in vitro pharmacology data”.
# pIC50, pKi: −log10 of the molar value.
# Columns and labels:
# [1] = target: Beta-3 adrenergic receptor (Homo sapiens, UniProt P13945); test: DRUGMATRIX: Adrenergic beta3 radioligand binding (ligand: [125I] Cyanopindolol); type: cell membranes, Membrane; conditions: hek293; Not Active = under 50% inhibition at 10 µM
# [2] = target: Cannabinoid receptor 1 (Homo sapiens, UniProt P21554); type: cell membranes, Chem-1, Membrane; conditions: for IC50: chem-1; as to all read-outs here: in other assays of this panel Not Active means under 50% inhibition at 10 µM
# [3] = target: T1, Cytochrome P450 2A6 (Homo sapiens, UniProt P11509); conditions: bti-tn-5b1-4; also: in other assays of this panel Not Active means under 50% inhibition at 10 µM
# T1 sequence (P11509 whole entry): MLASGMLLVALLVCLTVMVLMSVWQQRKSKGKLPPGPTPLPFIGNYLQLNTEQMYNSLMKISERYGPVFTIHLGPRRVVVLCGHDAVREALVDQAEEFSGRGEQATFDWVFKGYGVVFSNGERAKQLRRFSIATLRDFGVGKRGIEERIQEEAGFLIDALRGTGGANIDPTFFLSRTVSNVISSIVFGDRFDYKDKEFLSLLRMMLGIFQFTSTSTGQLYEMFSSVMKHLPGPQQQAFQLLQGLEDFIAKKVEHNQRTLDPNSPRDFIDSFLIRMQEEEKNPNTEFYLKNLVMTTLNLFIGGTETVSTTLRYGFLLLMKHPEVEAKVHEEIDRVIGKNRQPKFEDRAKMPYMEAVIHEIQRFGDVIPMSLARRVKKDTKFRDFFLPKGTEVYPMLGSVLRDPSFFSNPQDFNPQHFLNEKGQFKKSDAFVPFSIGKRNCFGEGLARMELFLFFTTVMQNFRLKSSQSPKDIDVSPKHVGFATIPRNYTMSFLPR
# [4] = target: T2, Progesterone receptor (Bos taurus, UniProt Q690N0); test: DRUGMATRIX: Progesterone radioligand binding (ligand: [3H] R-5020); type: tissue-based, Uterus; conditions: Not Active = under 50% inhibition at 10 µM
# T2 sequence (Q690N0 whole entry): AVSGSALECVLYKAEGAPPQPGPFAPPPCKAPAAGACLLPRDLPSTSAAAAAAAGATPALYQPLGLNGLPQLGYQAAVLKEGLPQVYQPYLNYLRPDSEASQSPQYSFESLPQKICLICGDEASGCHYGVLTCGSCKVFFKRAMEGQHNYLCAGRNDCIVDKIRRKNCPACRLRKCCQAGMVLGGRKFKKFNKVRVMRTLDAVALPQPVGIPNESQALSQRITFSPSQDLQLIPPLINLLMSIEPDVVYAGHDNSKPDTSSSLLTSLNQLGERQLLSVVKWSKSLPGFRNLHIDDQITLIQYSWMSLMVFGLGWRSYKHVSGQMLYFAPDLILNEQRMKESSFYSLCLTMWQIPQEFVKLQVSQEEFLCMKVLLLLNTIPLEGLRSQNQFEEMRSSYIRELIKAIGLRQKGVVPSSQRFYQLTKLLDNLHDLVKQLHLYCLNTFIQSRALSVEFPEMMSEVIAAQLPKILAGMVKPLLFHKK
# [5] = target: T3, Thromboxane-A synthase (Homo sapiens, UniProt P24557); test: biochemical; type: tissue-based, Platelet; conditions: for IC50: platelet; for pIC50: read-out: IC50;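 as to all read-outs here: enzyme inhibition assay with PGH2 supplied as substrate; in other assays of this panel Not Active means under 50% inhibition at 10 µM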
# T3 sequence (P24557 whole entry): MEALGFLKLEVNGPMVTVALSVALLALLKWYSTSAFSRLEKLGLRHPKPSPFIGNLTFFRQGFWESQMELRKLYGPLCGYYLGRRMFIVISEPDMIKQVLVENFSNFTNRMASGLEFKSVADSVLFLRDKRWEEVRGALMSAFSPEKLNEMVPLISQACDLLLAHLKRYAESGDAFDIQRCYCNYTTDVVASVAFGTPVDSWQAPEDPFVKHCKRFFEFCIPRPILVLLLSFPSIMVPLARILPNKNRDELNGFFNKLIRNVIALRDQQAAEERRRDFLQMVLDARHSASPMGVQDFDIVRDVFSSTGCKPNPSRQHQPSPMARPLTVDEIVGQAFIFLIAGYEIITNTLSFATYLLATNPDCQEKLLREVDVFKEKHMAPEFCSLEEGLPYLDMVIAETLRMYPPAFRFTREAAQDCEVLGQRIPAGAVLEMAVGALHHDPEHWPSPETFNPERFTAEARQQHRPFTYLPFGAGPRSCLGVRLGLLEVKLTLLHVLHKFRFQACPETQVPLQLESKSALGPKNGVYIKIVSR
# [6] = target: Mitogen-activated protein kinase 14 (Homo sapiens, UniProt Q16539); design: species or system Escherichia coli;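 also: inhibition of p38alpha enzyme activity in a biochemical kinase assay, with myelin basic protein serving as substrate; in other assays of this panel Not Active means under 50% inhibition at 10 µM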
# [7] = target: Mitogen-activated protein kinase 3 (Homo sapiens, UniProt P27361); test: DRUGMATRIX: Protein Serine/Threonine Kinase, ERK1 enzyme inhibition (substrate: Myelin Basic Protein); design: species or system Escherichia coli; conditions: Not Active = under 50% inhibition at 10 µM
# [8] = target: T4, Muscarinic acetylcholine receptor M5 (Homo sapiens, UniProt P08912); type: cell membranes, CHO-K1, Membrane; conditions: cho-k1; also: in other assays of this panel Not Active means under 50% inhibition at 10 µM
# T4 sequence (P08912 whole entry): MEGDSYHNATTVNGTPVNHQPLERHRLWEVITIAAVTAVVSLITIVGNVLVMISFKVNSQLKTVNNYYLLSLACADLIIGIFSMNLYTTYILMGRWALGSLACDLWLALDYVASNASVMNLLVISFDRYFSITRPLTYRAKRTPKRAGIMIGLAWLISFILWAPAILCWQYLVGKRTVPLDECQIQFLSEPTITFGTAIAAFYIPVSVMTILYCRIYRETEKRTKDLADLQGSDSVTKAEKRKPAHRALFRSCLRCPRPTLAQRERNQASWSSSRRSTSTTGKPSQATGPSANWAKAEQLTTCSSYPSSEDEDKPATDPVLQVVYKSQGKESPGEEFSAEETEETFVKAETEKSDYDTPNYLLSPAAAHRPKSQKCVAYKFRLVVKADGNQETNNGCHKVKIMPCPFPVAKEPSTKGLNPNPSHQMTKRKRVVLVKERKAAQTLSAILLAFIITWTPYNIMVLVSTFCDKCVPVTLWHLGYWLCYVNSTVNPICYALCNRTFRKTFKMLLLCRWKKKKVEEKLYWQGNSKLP
# [9] = target: Beta-1 adrenergic receptor (Homo sapiens, UniProt P08588); test: DRUGMATRIX: Adrenergic beta1 radioligand binding (ligand: [125I] Cyanopindolol); type: cell membranes, CHO-K1, Membrane; conditions: Not Active = under 50% inhibition at 10 µM; for IC50: cho-k1
# Beta-1 adrenergic receptor, sequence (P08588 whole entry): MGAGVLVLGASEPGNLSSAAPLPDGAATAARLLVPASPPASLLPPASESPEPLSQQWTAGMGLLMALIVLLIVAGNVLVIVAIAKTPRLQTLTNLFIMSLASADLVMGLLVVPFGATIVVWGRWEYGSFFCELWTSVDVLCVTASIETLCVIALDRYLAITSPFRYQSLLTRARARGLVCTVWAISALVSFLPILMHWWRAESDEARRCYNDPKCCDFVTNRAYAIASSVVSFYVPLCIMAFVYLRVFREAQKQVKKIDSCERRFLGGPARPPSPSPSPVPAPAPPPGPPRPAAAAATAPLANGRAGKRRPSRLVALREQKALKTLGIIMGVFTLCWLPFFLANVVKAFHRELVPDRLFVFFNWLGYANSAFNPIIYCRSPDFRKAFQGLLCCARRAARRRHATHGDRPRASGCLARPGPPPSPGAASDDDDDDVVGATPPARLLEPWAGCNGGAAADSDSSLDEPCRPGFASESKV
# Mitogen-activated protein kinase 14, sequence (Q16539 whole entry): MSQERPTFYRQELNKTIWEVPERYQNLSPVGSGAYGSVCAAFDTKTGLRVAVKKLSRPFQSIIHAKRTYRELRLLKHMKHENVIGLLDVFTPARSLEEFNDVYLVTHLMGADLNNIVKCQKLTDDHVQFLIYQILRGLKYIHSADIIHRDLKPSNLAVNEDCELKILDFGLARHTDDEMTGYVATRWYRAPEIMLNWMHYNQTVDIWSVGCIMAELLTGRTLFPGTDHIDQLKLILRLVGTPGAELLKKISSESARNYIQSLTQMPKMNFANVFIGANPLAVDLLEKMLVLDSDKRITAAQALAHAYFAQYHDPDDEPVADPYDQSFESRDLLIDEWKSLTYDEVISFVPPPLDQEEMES
# Cannabinoid receptor 1, sequence (P21554 whole entry): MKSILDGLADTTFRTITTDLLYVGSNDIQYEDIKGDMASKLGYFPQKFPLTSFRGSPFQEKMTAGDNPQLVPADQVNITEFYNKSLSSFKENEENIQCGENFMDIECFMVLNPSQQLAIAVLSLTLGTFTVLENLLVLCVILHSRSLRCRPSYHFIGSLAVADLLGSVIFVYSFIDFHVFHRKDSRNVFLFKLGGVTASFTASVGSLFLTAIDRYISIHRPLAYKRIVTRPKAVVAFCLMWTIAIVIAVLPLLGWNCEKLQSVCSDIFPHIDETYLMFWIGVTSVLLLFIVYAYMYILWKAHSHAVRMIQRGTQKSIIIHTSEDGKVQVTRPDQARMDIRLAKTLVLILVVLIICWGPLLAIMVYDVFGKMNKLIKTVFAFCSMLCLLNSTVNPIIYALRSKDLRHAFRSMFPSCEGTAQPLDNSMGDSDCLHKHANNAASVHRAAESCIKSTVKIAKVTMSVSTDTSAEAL
# Beta-3 adrenergic receptor, sequence (P13945 whole entry): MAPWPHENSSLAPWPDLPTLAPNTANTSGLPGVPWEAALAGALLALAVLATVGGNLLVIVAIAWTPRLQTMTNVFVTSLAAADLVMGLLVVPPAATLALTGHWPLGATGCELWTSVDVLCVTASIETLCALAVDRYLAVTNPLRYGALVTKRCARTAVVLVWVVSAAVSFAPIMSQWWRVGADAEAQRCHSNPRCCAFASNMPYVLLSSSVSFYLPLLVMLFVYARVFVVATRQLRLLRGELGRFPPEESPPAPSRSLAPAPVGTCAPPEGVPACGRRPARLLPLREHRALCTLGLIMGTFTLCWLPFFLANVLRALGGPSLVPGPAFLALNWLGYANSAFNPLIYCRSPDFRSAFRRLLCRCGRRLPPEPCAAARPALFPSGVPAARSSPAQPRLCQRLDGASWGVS
# Mitogen-activated protein kinase 3, sequence (P27361 whole entry): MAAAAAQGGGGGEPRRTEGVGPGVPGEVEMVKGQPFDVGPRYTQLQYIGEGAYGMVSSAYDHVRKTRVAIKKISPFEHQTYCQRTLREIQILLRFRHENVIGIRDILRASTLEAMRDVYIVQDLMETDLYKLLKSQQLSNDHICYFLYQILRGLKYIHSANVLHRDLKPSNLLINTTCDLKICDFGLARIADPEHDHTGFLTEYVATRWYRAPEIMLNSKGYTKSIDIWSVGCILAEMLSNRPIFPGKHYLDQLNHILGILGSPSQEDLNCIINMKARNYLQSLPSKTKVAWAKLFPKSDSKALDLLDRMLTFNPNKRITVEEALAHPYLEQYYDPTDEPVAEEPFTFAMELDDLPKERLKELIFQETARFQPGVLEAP
SMILES,IC50 [1],IC50 [2],IC50 [3],Ki [3],IC50 [4],IC50 [5],IC50 [6],IC50 [7],IC50 [8],IC50 [9],pIC50 [5],pIC50 ([2]; read-out: IC50),pKi ([2]; read-out: Ki),pKi ([4]; read-out: Ki),pIC50 ([6]; read-out: IC50),pIC50 ([9]; read-out: IC50),pKi ([9]; read-out: Ki)
N[C@H](CSC(=S)NCc1ccccc1)C(=O)O,Not Active,Not Active,Not Active,Not Active,Not Active,Not Active,Not Active,Not Active,Not Active,Not Active,,,,,,,
Cc1cc(C)nc(NS(=O)(=O)c2ccc(N)cc2)n1 [SULFAMETHAZINE],Not Active,Not Active,Not Active,Not Active,Not Active,Not Active,Not Active,Not Active,Not Active,Not Active,,,,,,,
Cc1cccc(Nc2ccncc2S(=O)(=O)NC(=O)NC(C)C)c1 [TORSEMIDE],Not Active,Not Active,Not Active,Not Active,Not Active,Not Active,Not Active,Not Active,Not Active,Not Active,,,,,,,
O=C1CCC(N2C(=O)c3ccccc3C2=O)C(=O)N1 (stereo unspecified) [THALIDOMIDE],Not Active,Not Active,Not Active,Not Active,Not Active,Not Active,Not Active,Not Active,Not Active,Not Active,,,,,,,
CC(C)CC(N(C)C)C1(c2ccc(Cl)cc2)CCC1 (stereo unspecified) [SIBUTRAMINE],Not Active,Not Active,Not Active,Not Active,Not Active,Not Active,Not Active,Not Active,Not Active,Not Active,,,,,,,
[H]/N=C(/N)N[C@H]1[C@H](O)[C@@H](O)[C@H](O[C@@H]2O[C@@H](C)[C@](O)(C=O)[C@H]2O[C@@H]2O[C@@H](CO)[C@H](O)[C@@H](O)[C@@H]2NC)[C@@H](N/C(N)=N\[H])[C@@H]1O [STREPTOMYCIN],Not Active,Not Active,Not Active,Not Active,Not Active,Not Active,Not Active,Not Active,Not Active,Not Active,,,,,,,
CC(C)C[C@H](NC(=O)[C@@H](O)[C@H](N)Cc1ccccc1)C(=O)O [UBENIMEX],Not Active,Not Active,Not Active,Not Active,Not Active,Not Active,Not Active,Not Active,Not Active,Not Active,,,,,,,
CC(C)NCC(O)COc1cccc2ccccc12 (stereo unspecified) [PROPRANOLOL],,Not Active,Not Active,Not Active,Not Active,Not Active,Not Active,Not Active,Not Active,,,,,,,,
Cc1onc(-c2ccccc2)c1-c1ccc(S(N)(=O)=O)cc1 [VALDECOXIB],Not Active,Not Active,Not Active,Not Active,Not Active,Not Active,Not Active,Not Active,Not Active,Not Active,,,,,,,
CC[C@]1(O)C[C@@H]2CN(CCc3c([nH]c4ccccc34)[C@@](C(=O)OC)(c3cc4c(cc3OC)N(C)[C@H]3[C@@](O)(C(=O)OC)[C@H](OC(C)=O)[C@]5(CC)C=CCN6CC[C@]43[C@@H]65)C2)C1 [VINBLASTINE],Not Active,Not Active,Not Active,Not Active,Not Active,,Not Active,Not Active,Not Active,Not Active,5.73,,,,,,
COCCOC(=O)C1=C(C)NC(C)=C(C(=O)OC(C)C)C1c1cccc([N+](=O)[O-])c1 (stereo unspecified) [NIMODIPINE],Not Active,,,,Not Active,Not Active,Not Active,Not Active,Not Active,Not Active,,5.76,5.86,,,,
CC(=O)N1CCN(c2ccc(OCC3COC(Cn4ccnc4)(c4ccc(Cl)cc4Cl)O3)cc2)CC1 (stereo unspecified) [KETOCONAZOLE],Not Active,Not Active,Not Active,Not Active,Not Active,,Not Active,Not Active,Not Active,Not Active,5.66,,,,,,
COc1cc(NS(=O)(=O)c2ccc(N)cc2)nc(OC)n1 [SULFADIMETHOXINE],Not Active,Not Active,Not Active,Not Active,Not Active,Not Active,Not Active,Not Active,Not Active,Not Active,,,,,,,
C[C@]1(Cn2ccnn2)[C@H](C(=O)O)N2C(=O)C[C@H]2S1(=O)=O [TAZOBACTAM],Not Active,Not Active,Not Active,Not Active,Not Active,Not Active,Not Active,Not Active,Not Active,Not Active,,,,,,,
CC/C(=C(/CC)c1ccc(O)cc1)c1ccc(O)cc1 [DIETHYLSTILBESTROL],Not Active,Not Active,Not Active,Not Active,,,,Not Active,,,5.36,,,6.21,4.48,4.66,4.89
C=CCN1CC[C@]23c4c5ccc(O)c4O[C@H]2C(=O)CC[C@@]3(O)[C@H]1C5 [NALOXONE],Not Active,Not Active,,,Not Active,Not Active,Not Active,Not Active,Not Active,Not Active,,,,,,,
Clc1ccc2c(c1)C(N1CCNCC1)=Nc1ccccc1O2 [AMOXAPINE],Not Active,Not Active,Not Active,Not Active,Not Active,Not Active,Not Active,Not Active,,Not Active,,,,,,,
CC(C)c1nc(CN(C)C(=O)N[C@H](C(=O)N[C@@H](Cc2ccccc2)C[C@H](O)[C@H](Cc2ccccc2)NC(=O)OCc2cncs2)C(C)C)cs1 [RITONAVIR],Not Active,Not Active,,,Not Active,,Not Active,Not Active,Not Active,Not Active,,,,,,,
